Measurements: patent US11771694B2, “Arylamide compounds for treatment and prevention of viral infections” (priority 2020, dated 2023)
In brackets after ≈: the same amount, converted by molar mass. Where two headings read alike, the source gives them in different places.

Experiments:
HCoV-229E = assay: Virus yield reduction assay, HCoV-229E on Huh-7 cells; type: cell-based; conditions: Human coronavirus 229E, 48 hours post-infection
Description: (§1) For these assays, brilacidin was included during viruses infection and post infection stages. The EC50 values were calculated from best-fit dose response curves with variable slope in Prism 8.

[1] = system: SARS-CoV-2 (Washington strain 2019-nCoV/USA-WA1/2020); conditions: Vero; direct assay; 10 μM; 24 hpi
[2] = system: S. aureus and coagulase-negative staphylococci; assay: Broth microdilution MIC, defined phenotypes in Staphylococcus species
[3] = system: mammalian cells (RBCs, 3T3, HepG2); type: cell-based
[4] = system: LPS-induced IL-1β release; assay: LPS-induced IL-1β release, NR8383 cells, ELISA; type: cell-based; conditions: Rattus norvegicus, 8-hour exposure, read-out: IC50, inhibition of LPS-induced IL-1β release
LPS-induced IL-6 release = assay: LPS-induced IL-6 release, NR8383 cells, ELISA; type: cell-based; conditions: Rattus norvegicus, 8-hour exposure, read-out: IC50, inhibition of LPS-induced IL-6 release
S. aureus = assay: microbe, parasite or virus in culture; type: cell-based; conditions: Staphylococcus aureus; value marked * = MIC90
Staph. saprophyticus = assay: Broth microdilution MIC; type: cell-based; conditions: Staphylococcus saprophyticus; Staph. saprophyticus; 2-3 isolates/organism; read-out: MIC
Escherichia coli = assay: Broth microdilution MIC; type: cell-based; conditions: 2-3 isolates/organism, read-out: MIC
[5] = system: luciferase-expressing pseudotyped virus (rVSV) containing the SARS-CoV-2 spike protein; type: cell-based
SARS-CoV-2 = assay: microbe, parasite or virus in culture; type: cell-based
LPS-induced IL-8 release = assay: LPS-induced IL-8 release, THP-1 cells, ELISA; type: cell-based; conditions: Homo sapiens, 8-hour exposure, read-out: IC50, inhibition of LPS-induced IL-8 release
[6] = system: Rift Valley fever virus (RFFV); type: cell-based; conditions: Vero; 10, 25 and 50 μM; virus treated only; 24 hpi
Strept. pneumoniae = assay: Broth microdilution MIC; type: cell-based; conditions: Streptococcus pneumoniae; Strept. pneumoniae; 2-3 isolates/organism; read-out: MIC
Strept. pyogenes = assay: Broth microdilution MIC; type: cell-based; conditions: Streptococcus pyogenes; Strept. pyogenes; 2-3 isolates/organism; read-out: MIC
Staph. aureus (MRSA) = assay: Broth microdilution MIC; type: cell-based; conditions: Staphylococcus aureus; Staph. aureus (MRSA); 2-3 isolates/organism; read-out: MIC
[7] = system: Venezuelan equine encephalitis virus (VEEV) TC83; type: cell-based; conditions: U87MG cells; 10 μM; virus treated only; 24 hpi
[8] = system: LPS-induced TNF-α release; assay: LPS-induced TNF-α release, THP-1 cells, ELISA; type: cell-based; conditions: Homo sapiens, 8-hour exposure, read-out: IC50, inhibition of LPS-induced TNF-α release
Entero. faecalis = assay: Broth microdilution MIC; type: cell-based; conditions: Enterococcus faecalis; Entero. faecalis; 2-3 isolates/organism; read-out: MIC
[9] = system: SARS-CoV-2 spike pseudotyped luciferase virus; type: cell-based
[10] = system: LPS-induced TNF-α release; assay: LPS-induced TNF-α release, NR8383 cells, ELISA; type: cell-based; conditions: Rattus norvegicus, 8 h; read-out: IC50, inhibition of LPS-induced TNF-α release
[11] = system: human liver cell line (HepG2)
HCoV-OC43 = assay: Virus yield reduction assay, HCoV-OC43 on RD cells; type: cell-based; conditions: Betacoronavirus 1, 48 hours post-infection
Description: as §1

Haemophilus influenzae = assay: Broth microdilution MIC; type: cell-based; conditions: 2-3 isolates/organism, read-out: MIC
Serratia marcescens = assay: Broth microdilution MIC; type: cell-based; conditions: 2-3 isolates/organism, read-out: MIC
[12] = Severe acute respiratory syndrome coronavirus 2, Calu-3

N=C(N)NCCCCC(=O)Nc1cc(C(F)(F)F)cc(NC(=O)c2cc(C(=O)Nc3cc(C(F)(F)F)cc(NC(=O)CCCCNC(=N)N)c3OC3CCNC3)ncn2)c1OC1CCNC1 (stereo not drawn) [brilacidin]
EC50 (HCoV-229E): 1950 ± 67 nM
decrease in the viral genomic copies [1]: 29%
Brilacidin MIC ([2]; DAP-NS, OXA-R, 5 isolates): 0.5-2
Brilacidin MIC ([2]; Drug-Susceptible, 217 isolates): 0.25-1
Brilacidin MIC ([2]; LZD, OXA-R, 5 isolates): 0.5-1
Brilacidin MIC ([2]; OXA-R, 161 isolates): 0.25-2
Brilacidin MIC ([2]; VRSA/VISA, DAP-NS, OXA-R, 3 isolates): 0.5-1
Brilacidin MIC ([2]; VRSA/VISA, OXA-R, 7 isolates): 0.5-1
folds more selective than natural HDPs [3]: 50 to 100 folds
IC50 [4]: 702 nM
IC50 (LPS-induced IL-6 release): 274 nM
MIC90 (S. aureus): 1 µg/mL (≈ 1.07 µM)
MIC (Staph. saprophyticus): 0.25 to 0.5 µg/mL (≈ 0.267 to 0.534 µM)
MIC (Escherichia coli): 1 to 2 µg/mL (≈ 1.07 to 2.13 µM)
intracellular spike protein signal [5]: decreased intracellular spike protein signal
reduction of infectious viral titer (SARS-CoV-2; 10 µM): 95%
reduction of infectious viral titer (SARS-CoV-2; 20 µM): 97%
Selectivity Index (CC50/IC50) (SARS-CoV-2; Calu-3): 426
inhibition exerted at the MOIs of 0.1 and 0.05 (SARS-CoV-2; Calu-3, 10 μM): comparable to each other
inhibition of virus at the lower MOIs (SARS-CoV-2; Calu-3, 10 μM, MOIs 0.01 and 0.001): not showing statistical significance
infectious virus titer, treatment of virus alone (E, entry) (SARS-CoV-2; Calu-3, inoculum incubated with 5, 10 or 20 μM for 1 hour, no pre- or post-treatment of cells, Washington and Italy strains): marked reductions of virus titer
IC50 (SARS-CoV-2; [12]): 565 nM
IC90 (SARS-CoV-2; [12]): 2630 nM
inhibition at 20 µM (SARS-CoV-2; Severe acute respiratory syndrome coronavirus 2, Calu-3, read-out: inhibition of infectious viral titer): 61%
IC50 (LPS-induced IL-8 release): 10800 nM
inhibition compared to the DMSO-control [6]: dose-dependent inhibition
MIC (Strept. pneumoniae): 4 to 8 µg/mL (≈ 4.27 to 8.54 µM)
MIC (Strept. pyogenes): 1 to 4 µg/mL (≈ 1.07 to 4.27 µM)
MIC (Staph. aureus (MRSA)): 0.5 to 1 µg/mL (≈ 0.534 to 1.07 µM)
infectious viral titer compared to the DMSO-control [7]: statistically significant reduction
IC50 [8]: 23400 nM
MIC (Entero. faecalis): 1 µg/mL (≈ 1.07 µM)
inhibition (luciferase activity) vs vehicle control ([9]; 0.1 μg/ml): 29%
inhibition (luciferase activity) vs vehicle control ([9]; 100 μg/ml): 85%
IC50 [10]: 442 nM
Selectivity (EC50/MIC) HepG2 [11]: 1,031
EC50 (HCoV-OC43): 4810 ± 950 nM
MIC (Haemophilus influenzae): 4 to 8 µg/mL (≈ 4.27 to 8.54 µM)
MIC (Serratia marcescens): 32 µg/mL (≈ 34.2 µM)
